Source: article PMC9272005, “Genome-Wide Expression Analysis of Glyoxalase I Genes Under Hyperosmotic Stress and Existence of a Stress-Responsive Mitochondrial Glyoxalase I Activity in Durum Wheat (Triticum durum Desf.)” (Frontiers in Plant Science, 2022)

Molecular target: T1, DWM-GLYI (mitochondrial glyoxalase I)
T1 construct: native activity in Triton X-100-lysed purified mitochondria; isoform not identified
Test: spectrophotometric GLYI activity assay ([…] nm) in lysed mitochondria, inhibition kinetics
Assay type: biochemical, Triticum turgidum subsp. durum

| Structure (SMILES) | Ki [µM] |
| --- | --- |
| COc1cc(/C=C/C(=O)CC(=O)/C=C/c2ccc(O)c(OC)c2)ccc1O [curcumin] | 20 ± 3.5 |
| O=c1c(O)c(-c2ccc(O)c(O)c2)oc2cc(O)cc(O)c12 [quercetin] | 55 ± 7.5 |
